Assay results reported in patent US9115159B2, “Phosphate compounds, a process for their preparation and pharmaceutical compositions containing them” (LES LABORATOIRES SERVIER, priority 2013, dated 2015).
Read-outs that look alike come from different tables or passages of the source.

Legend:
[1] = test system: human Caco-2 cells; assay: In vitro test on human Caco-2 cells, cellular transport A to B; format: in vitro ADME; conditions: 120 minutes; for Yield (experiment yield), the drug after incubation of the prodrug / Fabs (predicted absorbed fraction in humans), the drug after incubation of the prodrug / Papp, compound measured: the prodrug itself / Yield (experiment yield), compound measured: the prodrug itself: prodrug incubated; for Yield (experiment yield), the drug after incubation of the prodrug / Fabs (predicted absorbed fraction in humans), the drug after incubation of the prodrug: corresponding drug measured; for Papp, compound measured: the prodrug itself: deposited apically at 1 or 3 μM; for Yield (experiment yield), compound measured: the prodrug itself: total amount found at the end versus incubated
Method: (§1) The cellular transport from A to B (Apical to Basolateral) of the phosphate compounds of formula (I) and the compounds of formula (I′) (corresponding drugs) is studied in human Caco-2 cells. Each compound is deposited apically at 1 or 3 μM (in duplicate) and then incubated for 120 minutes.
(§2) Several samples are taken during the experiment; • apically: immediately after deposition (t=0) and at 120 minutes • basolaterally: at the end of the experiment (120 minutes)
(§3) The concentrations of the phosphate compound (prodrug) and/or of its hydroxylated homologue (drug) are determined by liquid chromatography coupled with mass spectrometric detection (LC-MS/MS). The limit of quantification for both entities is 2 ng/mL.
(§4) The apparent permeability (Papp) and the predicted absorbed fraction (Fabs) in humans are calculated for the prodrug, for the drug after incubation of the prodrug and for the drug after incubation of the drug (Hubatsch et al, Nat Protoc. 2007; 2(9), 2111-2119).
(§5) The experiment yield, which corresponds to the ratio (in percent) of the total amount of compound found at the end of the experiment versus that incubated, is also calculated.

[2] = Pharmacokinetic profile / in vivo conversion after oral administration to SCID mice (plasma, LC-MS/MS); design: species or system female SCID mice; conditions: aqueous formulation (1M sodium carbonate)
Method: The pharmacokinetic profile of the phosphate compounds of formula (I) is evaluated in a lipid formulation and in aqueous solution in female SCID mice. This is compared to the pharmacokinetic profile of compounds of formula (I′) in a lipid formulation. More specifically, 4-[{[3-(6-{[(3S)-3-(morpholin-4-ylmethyl)-3,4-dihydroisoquinolin-2(1H)-yl]-carbonyl}-1,3-benzodioxol-5-yl)-5,6,7,8-tetrahydroindolizin-1-yl]carbonyl}(phenyl)-amino]phenyl disodium phosphate (also referred to as the compound of Example 1) was tested and compared to N-(4-hydroxyphenyl)-3-{6-[((3S)-3-(4-morpholinylmethyl)-3,4-dihydro-2(1H)-isoquinolinyl)carbonyl]-1,3-benzodioxol-5-yl}-N-phenyl-5,6,7,8-tetrahydro-1-indolizine carboxamide (also referred to as the drug from Example 1).
The compound of Example 1 is prepared in a mixture of anhydrous ethanol/polyethylene glycol 300/water (10/40/50, v/v/v) intended for administration by the p.o. route. The study is carried out in 2 groups of SCID mice to which the compound of Example 1 is administered under the following conditions: • Group 1: 3 mg/kg p.o. (gavage, 10 mL/kg), • Group 2: 25 mg/kg p.o. (gavage, 10 mL/kg).
Blood samples are taken at the following points in time (3 samples per animal and 3 animals for each point in time): 0.25 hr, 0.5 hr, 1 hr, 2 hrs, 6 hrs and 24 hrs after oral administration.
The compound of Example 1 is also administered by the oral route in an aqueous medium to SCID mice, under the following conditions: • Group 1: 30 mg/kg p.o. dissolved in 1 mM sodium carbonate solution (gavage, 10 mL/kg), • Group 2: 100 mg/kg p.o. in water (gavage, 10 mL/kg).
Blood samples are taken at the following points in time (3 animals for each point in time and 1 sample per animal): 0.25 hr, 0.5 hr, 1 hr, 2 hrs, 4 hrs, 6 hrs and 24 hrs after oral administration.
For all formulations of the compound of Example 1, the blood thereby collected is centrifuged and the plasma is transferred to tubes containing 1M hydrochloric acid. The plasma concentrations of the phosphate compound (prodrug) and its hydroxylated homologue (drug) are determined simultaneously using a method of liquid chromatography coupled with mass spectrometric detection (TFC-LC-MS/MS). The limit of detection for both entities is 0.5 ng/mL.
The drug from Example 1 is prepared in a mixture of anhydrous ethanol/polyethylene glycol 300/water (10/40/50, v/v/v) intended for administration by the p.o. route. The study is carried out in several groups of SCID mice to which the drug from Example 1 is administered under the following conditions: • Group 1: 3 mg/kg p.o. (gavage, 10 mL/kg), • Group 2: 30 mg/kg p.o. (gavage, 10 mL/kg), • Group 3: 25 mg/kg p.o. (gavage, 10 mL/kg), • Group 4: 100 mg/kg p.o. (gavage, 10 mL/kg).
Blood samples are taken at the following points in time (3 animals for each point in time and 3 samples per animal for Groups 1-2 and 1 sample per animal for Groups 3 and 4): • p.o.: before administration and then 0.25 hr, 0.5 hr, 0.75 hr, 1 hr, 2 hrs, 4 hrs, 6 hrs, 8 hrs, 16 hrs and 24 hrs after oral administration at 3 and 30 mg/kg, • p.o.: 0.5 hr, 2 hrs, 6 hrs, 16 hrs and 24 hrs after oral administration at 25 mg/kg and 0.5 hr, 1 hr, 2 hrs, 6 hrs, 16 hrs, 30 hrs and 48 hrs after oral administration at 100 mg/kg.
The plasma from the blood samples collected after administration of the lipid formulations of the drug from the compound of Example 1 are analysed by liquid chromatography coupled with mass spectrometric detection. The limit of quantification of the drug from the compound of Example 1 is less than or equal to 0.5 ng/mL.
Non-compartmental pharmacokinetic analysis is carried out on the mean values of the plasma concentrations of the compounds tested. […]

[3] = Solubility in aqueous medium buffered to physiological pH (phosphate 0.33M, pH 7.4); format: physicochemical
Method: The solubilities of the compounds were also measured in a medium buffered to physiological pH (cf. Table 3).

[4] = In vitro test on human Caco-2 cells, cellular transport A to B; format: in vitro ADME; conditions: human, Caco-2, drug incubated and measured, A to B, 1 or 3 μM, read-out: Papp, the drug after incubation of the drug
Method: as §1, §2, §3, §4, §5

[5] = Example 20 administered 25 mg/kg p.o.
[6] = phosphate 0.33M, pH = 7.4, 10 μM
[7] = phosphate 0.33M, pH = 7.4, 20 μM
[8] = phosphate 0.33M, pH = 7.4, 50 μM
[9] = phosphate 0.33M, pH = 7.4, 100 μM
[10] = Example 25 administered 3 mg/kg p.o.
[11] = Example 25 administered 25 mg/kg p.o.

Structure (SMILES) | Yield (experiment yield), the drug after incubation of the prodrug [1] | Fabs (predicted absorbed fraction in humans), the drug after incubation of the prodrug ([1]; A to B, 1 or 3 μM) | Yield (experiment yield), compound measured: the prodrug itself [1] | Solubility at 10 μM [3, 6] | Solubility at 20 μM [3, 7] | Solubility at 50 μM [3, 8] | Solubility at 100 μM [3, 9] | other results
C[C@@H]1Cc2ccccc2CN1C(=O)c1cc2c(cc1-c1cc(C(=O)N(c3ccc(OP(=O)([O-])[O-])cc3)c3cnc4c(ccn4C)c3)c3ccccn13)OCO2.[Na+].[Na+] [Example 4, 4-[{[3-(6-{[(3R)-3-Methyl-3,4-dihydroisoquinolin-2(1H)-yl]carbonyl}-1,3-benzodioxol-5-yl)indolizin-1-yl]carbonyl}(1-methyl-1H-pyrrolo[2,3-b]pyridin-5-yl)amino]phenyl disodium phosphate] | Yield (%) = 38 | Fabs (%) = 69 | Yield (%) = 1.3 | – | – | – | – | Papp, compound measured: the prodrug itself ([1]; A to B): Papp (10^−6 cm/s) = 0.33
C[C@@H]1Cc2ccccc2CN1C(=O)c1cc2c(cc1-c1cc(C(=O)N(c3ccncc3)c3ccc(OP(=O)([O-])[O-])cc3)c3ccccn13)OCO2.[Na+].[Na+] [Example 5, 4-[{[3-(6-{[(3R)-3-Methyl-3,4-dihydroisoquinolin-2(1H)-yl]carbonyl}-1,3-benzodioxol-5-yl)indolizin-1-yl]carbonyl}(pyridin-4-yl)amino]phenyl disodium phosphate] | Yield (%) = 78 | Fabs (%) = 86 | Yield (%) = 1.2 | – | – | – | – | Papp, compound measured: the prodrug itself ([1]; A to B): Papp (10^−6 cm/s) = 0.26
Cc1c(C(=O)N(c2ccc(O)cc2)c2cc(C#N)n(C)c2)cc(-c2cc(Cl)ccc2C(=O)N2Cc3ccccc3C[C@H]2CN2CCOCC2)n1C [Drug from Example 21, 5-(5-Chloro-2-{[(3S)-3-(morpholin-4-ylmethyl)-3,4-dihydroisoquinolin-2(1H)-yl]carbonyl}phenyl)-N-(5-cyano-1-methyl-1H-pyrrol-3-yl)-N-(4-hydroxyphenyl)-1,2-dimethyl-1H-pyrrole-3-carboxamide] | – | – | – | – | – | – | – | Yield (experiment yield), the drug after incubation of the drug ([1]; drug incubated and measured): Yield (%) = 82; Fabs (predicted absorbed fraction in humans), the drug after incubation of the drug ([1]; drug incubated and measured, A to B, 1 or 3 μM): Fabs (%) = 24; Papp A→B at 120 min [4]: 0.27 ×10⁻⁶ cm/s
[2H]C([2H])([2H])n1cc(N(C(=O)c2cc(-c3cc(Cl)ccc3C(=O)N3Cc4ccccc4C[C@H]3CN3CCOCC3)n(C)c2C)c2ccc(OP(=O)([O-])[O-])cc2)cn1.[Na+].[Na+] [Example 19, 4-({[5-(5-Chloro-2-{[(3S)-3-(morpholin-4-ylmethyl)-3,4-dihydroisoquinolin-2(1H)-yl]carbonyl}phenyl)-1,2-dimethyl-1H-pyrrol-3-yl]carbonyl}[1-(trideuteriomethyl)-1H-pyrazol-4-yl]amino)phenyl disodium phosphate] | – | – | – | – | – | – | – | Solubility at 10 μM [3]: Soluble; Solubility at 20 μM [3]: Soluble; Solubility at 50 μM [3]: Soluble; Solubility at 100 μM [3]: Soluble
Cc1c(N(C(=O)c2cc(-c3cc(F)ccc3C(=O)N3Cc4ccccc4C[C@H]3CN3CCOCC3)n(C)c2C)c2ccc(OP(=O)([O-])[O-])cc2)cc(C#N)n1C.[Na+].[Na+] [Example 25, 4-[(5-Cyano-1,2-dimethyl-1H-pyrrol-3-yl){[5-(5-fluoro-2-{[(3S)-3-(morpholin-4-ylmethyl)-3,4-dihydroisoquinolin-2(1H)-yl]carbonyl}phenyl)-1,2-dimethyl-1H-pyrrol-3-yl]carbonyl}amino]phenyl disodium phosphate] | Yield (%) = 48 | Fabs (%) = 20 | Yield (%) = 33 | Soluble | Soluble | Soluble | Soluble | AUCt, compound measured: Example 25 [2, 10]: AUCt (ng · h/mL) = 14; Cmax, compound measured: Example 25 [2, 10]: Cmax (ng/mL) = 17; Tmax, compound measured: Example 25 [2, 10]: Tmax (h) = 1.0; AUCt, compound measured: Example 25 [2, 11]: AUCt (ng · h/mL) = 114; Cmax, compound measured: Example 25 [2, 11]: Cmax (ng/mL) = 106; Tmax, compound measured: Example 25 [2, 11]: Tmax (h) = 1.0

The next lines start with results.

Yield (experiment yield), the drug after incubation of the prodrug [1] | Fabs (predicted absorbed fraction in humans), the drug after incubation of the prodrug ([1]; A to B, 1 or 3 μM) | Yield (experiment yield), compound measured: the prodrug itself [1] | Solubility at 10 μM [3, 6] | Solubility at 20 μM [3, 7] | Solubility at 50 μM [3, 8] | Solubility at 100 μM [3, 9] | Structure (SMILES) | other results
Yield (%) = 100 | Fabs (%) = 16 | Yield (%) = 0.94 | Soluble | Soluble | Soluble | Soluble | Cc1c(N(C(=O)c2cc(-c3cc(Cl)ccc3C(=O)N3Cc4ccccc4C[C@H]3CN3CCOCC3)n(C)c2C)c2ccc(OP(=O)([O-])[O-])cc2)cc(C#N)n1C.[Na+].[Na+] [Example 20, 4-[{[5-(5-Chloro-2-{[(3S)-3-(morpholin-4-ylmethyl)-3,4-dihydroisoquinolin-2(1H)-yl]carbonyl}phenyl)-1,2-dimethyl-1H-pyrrol-3-yl]carbonyl}(5-cyano-1,2-dimethyl-1H-pyrrol-3-yl)amino]phenyl disodium phosphate] | Cmax, compound measured: Example 20 ([2]; Example 20 administered 3 mg/kg p.o., BLQ: below the limit of quantification): Cmax (ng/mL) = BLQ; AUCt, compound measured: Example 20 [2, 5]: AUCt (ng · h/mL) = 106; Cmax, compound measured: Example 20 [2, 5]: Cmax (ng/mL) = 127; Tmax, compound measured: Example 20 [2, 5]: Tmax (h) = 0.25
– | – | – | Soluble | Soluble | Soluble | Insoluble | [2H]C([2H])([2H])n1cc(N(C(=O)c2cc(-c3cc(Cl)ccc3C(=O)N3Cc4ccccc4C[C@H]3CN3CCOCC3)n(C)c2C)c2ccc(O)cc2)cn1 [Drug from Example 19, 5-(5-Chloro-2-{[(3S)-3-(morpholin-4-ylmethyl)-3,4-dihydroisoquinolin-2(1H)-yl]carbonyl}phenyl)-N-(4-hydroxyphenyl)-1,2-dimethyl-N-[1-(trideuteriomethyl)-1H-pyrazol-4-yl]-1H-pyrrole-3-carboxamide] | –
